Experimental data as given in patent US6333176A (Degussa Aktiengesellschaft, priority 1994, dated 2001).
Peptide text beside a SMILES is read from it. * marks the point of attachment. Cbz = O=C(OCc1ccccc1)*

Tests used:
[1] = tested on: peptide amidase from flavedo of oranges; conditions: cited from earlier work
[2] = biological target: T1, peptide amidase from Xanthomonas maltophilia (Stenotrophomonas maltophilia, UniProt Q8RJN5); assay: biochemical; type: biochemical
T1 construct: wild type, not recombinant
T1 sequence (Q8RJN5 34-540): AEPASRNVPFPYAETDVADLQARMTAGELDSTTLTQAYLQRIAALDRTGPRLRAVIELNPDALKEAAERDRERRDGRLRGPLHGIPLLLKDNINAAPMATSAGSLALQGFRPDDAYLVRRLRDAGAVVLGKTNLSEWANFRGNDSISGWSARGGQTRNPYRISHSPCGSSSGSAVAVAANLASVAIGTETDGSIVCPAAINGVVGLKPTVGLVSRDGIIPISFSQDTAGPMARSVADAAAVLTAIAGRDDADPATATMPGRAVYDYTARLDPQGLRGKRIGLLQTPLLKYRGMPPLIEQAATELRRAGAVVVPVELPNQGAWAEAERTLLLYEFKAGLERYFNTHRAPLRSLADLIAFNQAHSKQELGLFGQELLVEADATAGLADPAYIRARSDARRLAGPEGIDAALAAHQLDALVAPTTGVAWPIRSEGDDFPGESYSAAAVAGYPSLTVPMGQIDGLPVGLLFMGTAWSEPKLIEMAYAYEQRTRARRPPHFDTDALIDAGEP

[3] = biological target: T1, peptide amidase from Xanthomonas maltophilia; assay: Enzyme kinetics of peptide amidase; type: biochemical; conditions: substrate 0.4 to 20 mM, 50 mM tris/HCl pH 7.5, 2 hours, 30° C.
Procedure: The dependency of the reaction rate of peptide amidase from Xanthomonas maltophilia on the substrate concentration (Z-Gly-Tyr-NH2) was determined and the kinetic parameters determined from the data according to Marquardt. To this end, 50 μl enzyme solution a 27 μg BSAeq/ml were compounded with 400 μl 50 mM tris/HCl buffer, pH 7.5. The reaction was started by adding Z-Gly-Tyr-NH2 as substrate. The substrate was present in the reaction batches in a concentration range of 0.4 to 20 mM. The incubation took place for 2 hours at 30° C. The enzyme activity was then determined as described under 1.4.
The reaction conditions were selected with a view to the pH stability of peptide amidase from Xanthomonas maltophilia.
In order to stop the reaction 100 μl of the reaction solution was removed, compounded with 100 μl glacial acetic acid and filled with 1.4 ml HPLC mobile solvent. An aliquot of 20 μl was analyzed by HPLC. The conditions for the HPLC analysis of Z-Gly-Tyr-NH2 were as follows: […]

| SMILES | inhibition by inhibitors from serine proteases [1] | inhibition of the microbial peptide amidase (serine groups) [2] | residual activity ([2]; potential inhibitor 10 mM in the test, preincubation 1 h 30° C., Z-Gly-Tyr-NH2 10 mM, 2.5 h) [%] | vmax [3] [U/mg BSAeq] |
| --- | --- | --- | --- | --- |
| O=S(=O)(F)Cc1ccccc1 [Phenylmethane sulfonyl fluoride] | Slight inhibition | Inhibition | 58 | – |
| NC(=O)[C@H](Cc1ccc(O)cc1)NC(=O)CNC(=O)OCc1ccccc1 [Z-Gly-Tyr-NH2] (Cbz-Gly-Tyr-NH2) | – | – | – | 0.53 |
